Assays:
[1] = Drug metabolism in CD1 mouse liver microsomes at 10 uM after 30 mins by LCMS analysis; type: ADME; details: read-out: Drug metabolism
[2] = Antiproliferative activity against human HCT116 cells assessed as cell viability after 72 hrs by MTT assay; type: functional; details: HCT-116, 72 h
[3] = molecular target: CDK2/Cyclin A2 (Homo sapiens, UniProt P24941)
[4] = Clearance in Sprague-Dawley rat blood at 5 mg/kg, iv or po after 24 hrs by ESI-LCMS/MS analysis; type: ADME, organism-based
[5] = molecular target: Cytochrome P450 2C9 (Homo sapiens, UniProt P11712); test: Inhibition of CYP2C9 (unknown origin); type: ADME; details: human
Sequence of Cytochrome P450 2C9 (P11712 whole entry): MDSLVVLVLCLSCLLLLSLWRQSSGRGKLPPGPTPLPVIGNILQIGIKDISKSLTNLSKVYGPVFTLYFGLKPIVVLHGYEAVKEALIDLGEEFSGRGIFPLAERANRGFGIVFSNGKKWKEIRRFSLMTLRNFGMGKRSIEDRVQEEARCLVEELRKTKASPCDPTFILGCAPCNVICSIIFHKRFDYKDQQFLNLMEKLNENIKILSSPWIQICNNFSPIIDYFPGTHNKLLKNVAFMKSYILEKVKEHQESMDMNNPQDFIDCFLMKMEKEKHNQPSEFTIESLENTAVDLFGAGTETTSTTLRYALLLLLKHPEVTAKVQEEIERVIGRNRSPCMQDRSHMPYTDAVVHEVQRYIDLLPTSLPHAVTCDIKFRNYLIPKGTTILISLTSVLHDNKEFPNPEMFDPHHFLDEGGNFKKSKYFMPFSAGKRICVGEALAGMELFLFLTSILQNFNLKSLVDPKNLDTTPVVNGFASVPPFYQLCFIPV

[6] = molecular target: Voltage-gated inwardly rectifying potassium channel KCNH2 (Homo sapiens, UniProt Q12809); test: Inhibition of human ERG at 1 to 10 uM
Sequence of Voltage-gated inwardly rectifying potassium channel KCNH2 (Q12809 whole entry): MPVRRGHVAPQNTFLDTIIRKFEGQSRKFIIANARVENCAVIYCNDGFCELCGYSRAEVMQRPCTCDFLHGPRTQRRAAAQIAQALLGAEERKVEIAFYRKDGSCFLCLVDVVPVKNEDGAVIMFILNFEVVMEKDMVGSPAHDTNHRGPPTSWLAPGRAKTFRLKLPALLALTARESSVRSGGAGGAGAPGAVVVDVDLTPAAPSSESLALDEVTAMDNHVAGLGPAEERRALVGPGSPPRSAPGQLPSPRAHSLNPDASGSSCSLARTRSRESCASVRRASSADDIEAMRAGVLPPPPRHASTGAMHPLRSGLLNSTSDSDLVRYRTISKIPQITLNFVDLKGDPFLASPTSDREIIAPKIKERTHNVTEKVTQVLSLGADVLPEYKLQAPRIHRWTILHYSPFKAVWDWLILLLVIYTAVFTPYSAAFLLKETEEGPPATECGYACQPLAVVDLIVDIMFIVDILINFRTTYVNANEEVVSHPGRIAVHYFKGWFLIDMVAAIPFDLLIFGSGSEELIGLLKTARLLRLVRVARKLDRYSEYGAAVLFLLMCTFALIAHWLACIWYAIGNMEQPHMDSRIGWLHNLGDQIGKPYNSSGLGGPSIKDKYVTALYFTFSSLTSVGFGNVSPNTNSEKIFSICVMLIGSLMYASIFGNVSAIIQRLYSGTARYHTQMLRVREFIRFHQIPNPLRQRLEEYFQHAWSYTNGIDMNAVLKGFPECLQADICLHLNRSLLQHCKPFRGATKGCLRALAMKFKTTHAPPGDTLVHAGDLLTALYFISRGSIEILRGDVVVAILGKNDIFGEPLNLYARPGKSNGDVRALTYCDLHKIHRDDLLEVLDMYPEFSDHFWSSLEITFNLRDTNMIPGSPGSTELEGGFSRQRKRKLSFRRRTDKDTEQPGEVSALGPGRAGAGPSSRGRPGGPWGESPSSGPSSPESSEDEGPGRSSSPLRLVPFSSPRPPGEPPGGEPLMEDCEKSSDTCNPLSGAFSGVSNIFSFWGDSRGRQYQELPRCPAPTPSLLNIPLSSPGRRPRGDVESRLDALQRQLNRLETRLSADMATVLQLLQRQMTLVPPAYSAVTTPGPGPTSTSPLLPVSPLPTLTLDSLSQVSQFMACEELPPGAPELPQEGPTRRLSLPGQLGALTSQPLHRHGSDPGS

[7] = molecular target: T1, Cytochrome P450 2C8 (Homo sapiens, UniProt P10632); test: Inhibition of CYP2C8 (unknown origin); type: ADME
T1 sequence (P10632 whole entry): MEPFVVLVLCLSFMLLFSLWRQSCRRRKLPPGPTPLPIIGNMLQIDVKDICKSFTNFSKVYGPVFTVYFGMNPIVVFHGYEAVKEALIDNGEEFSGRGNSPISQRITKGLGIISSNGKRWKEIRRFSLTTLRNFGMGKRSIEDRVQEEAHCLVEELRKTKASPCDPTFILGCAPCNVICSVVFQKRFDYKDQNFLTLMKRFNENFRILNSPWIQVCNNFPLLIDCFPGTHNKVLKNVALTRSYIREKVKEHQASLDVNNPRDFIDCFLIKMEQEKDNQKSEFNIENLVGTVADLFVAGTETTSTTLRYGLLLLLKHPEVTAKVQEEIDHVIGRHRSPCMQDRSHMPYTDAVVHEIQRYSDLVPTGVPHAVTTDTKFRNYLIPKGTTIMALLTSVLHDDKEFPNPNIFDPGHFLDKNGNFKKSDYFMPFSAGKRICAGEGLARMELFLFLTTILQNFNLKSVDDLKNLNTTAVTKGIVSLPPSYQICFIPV

[8] = AUC in Sprague-Dawley rat blood at 5 mg/kg, po after 24 hrs by ESI-LCMS/MS analysis; type: ADME, organism-based; design: time < 24 hr, dose 5 mg/kg, route oral
[9] = Antiproliferative activity against human CAL51 cells assessed as cell viability after 72 hrs by MTT assay; type: functional; details: CAL-51, 72 h
[10] = Half life in Sprague-Dawley rat blood at 5 mg/kg, iv or po […] by ESI-LCMS/MS analysis; type: ADME, organism-based
[11] = Antiproliferative activity against human CAL27 cells assessed as cell viability after 72 hrs by MTT assay; type: functional; details: CAL-27, 72 h
[12] = Cmax in Balb/C mouse blood at 5 mg/kg, po after 24 hrs by ESI-LCMS/MS analysis; type: ADME, organism-based; design: dose 5 mg/kg, route oral
[13] = molecular target: T2, Cytochrome P450 2A6 (Homo sapiens, UniProt P11509); test: Inhibition of CYP2A6 (unknown origin); type: ADME
T2 sequence (P11509 whole entry): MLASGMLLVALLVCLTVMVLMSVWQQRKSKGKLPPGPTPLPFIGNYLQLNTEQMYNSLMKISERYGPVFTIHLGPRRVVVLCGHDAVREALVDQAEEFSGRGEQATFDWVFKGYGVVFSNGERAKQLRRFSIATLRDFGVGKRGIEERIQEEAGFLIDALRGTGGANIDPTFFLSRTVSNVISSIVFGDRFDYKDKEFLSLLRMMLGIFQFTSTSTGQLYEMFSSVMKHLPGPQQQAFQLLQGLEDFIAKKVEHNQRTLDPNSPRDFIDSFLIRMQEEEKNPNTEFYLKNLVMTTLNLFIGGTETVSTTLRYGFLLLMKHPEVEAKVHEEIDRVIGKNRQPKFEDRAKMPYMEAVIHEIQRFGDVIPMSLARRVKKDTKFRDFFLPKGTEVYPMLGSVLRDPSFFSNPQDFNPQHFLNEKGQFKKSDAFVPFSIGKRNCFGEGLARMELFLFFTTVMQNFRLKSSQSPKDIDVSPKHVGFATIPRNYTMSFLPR

[14] = Cmax in Sprague-Dawley rat blood at 5 mg/kg, po after 24 hrs by ESI-LCMS/MS analysis; type: ADME, organism-based; design: dose 5 mg/kg, route oral
[15] = Half life in Balb/C mouse blood at 5 mg/kg, iv or po after 24 hrs by ESI-LCMS/MS analysis; type: ADME, organism-based
[16] = Antiproliferative activity against human PNT2 cells assessed as cell viability after 72 hrs by MTT assay; type: functional; details: PNT2, 72 h
[17] = Drug metabolism in human liver microsomes at 10 uM after 30 mins by LCMS analysis; type: ADME; details: read-out: Drug metabolism
[18] = molecular target: T3, Cytochrome P450 3A4 (Homo sapiens, UniProt P08684); test: Inhibition of CYP3A4 (unknown origin) using midazolam as substrate; type: ADME
T3 sequence (P08684 whole entry): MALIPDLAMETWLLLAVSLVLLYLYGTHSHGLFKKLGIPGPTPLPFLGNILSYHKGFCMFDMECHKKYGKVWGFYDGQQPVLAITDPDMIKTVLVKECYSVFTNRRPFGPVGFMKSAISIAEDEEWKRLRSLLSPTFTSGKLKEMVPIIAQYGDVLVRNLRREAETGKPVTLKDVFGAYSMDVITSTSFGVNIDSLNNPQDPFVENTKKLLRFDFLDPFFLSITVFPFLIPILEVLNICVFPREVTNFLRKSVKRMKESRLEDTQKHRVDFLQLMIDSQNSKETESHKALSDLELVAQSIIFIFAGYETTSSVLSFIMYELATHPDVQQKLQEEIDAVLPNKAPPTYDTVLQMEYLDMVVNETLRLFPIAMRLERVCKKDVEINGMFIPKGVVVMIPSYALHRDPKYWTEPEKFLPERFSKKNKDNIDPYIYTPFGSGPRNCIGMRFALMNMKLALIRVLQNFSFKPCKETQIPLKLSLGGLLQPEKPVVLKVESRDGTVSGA

[19] = molecular target: Mitogen-activated protein kinase 8 (Homo sapiens, UniProt P45983); test: Inhibition of human full length recombinant His-tagged JNK1 expressed in baculovirus by lanthascreen assay
Sequence of Mitogen-activated protein kinase 8 (P45983 whole entry): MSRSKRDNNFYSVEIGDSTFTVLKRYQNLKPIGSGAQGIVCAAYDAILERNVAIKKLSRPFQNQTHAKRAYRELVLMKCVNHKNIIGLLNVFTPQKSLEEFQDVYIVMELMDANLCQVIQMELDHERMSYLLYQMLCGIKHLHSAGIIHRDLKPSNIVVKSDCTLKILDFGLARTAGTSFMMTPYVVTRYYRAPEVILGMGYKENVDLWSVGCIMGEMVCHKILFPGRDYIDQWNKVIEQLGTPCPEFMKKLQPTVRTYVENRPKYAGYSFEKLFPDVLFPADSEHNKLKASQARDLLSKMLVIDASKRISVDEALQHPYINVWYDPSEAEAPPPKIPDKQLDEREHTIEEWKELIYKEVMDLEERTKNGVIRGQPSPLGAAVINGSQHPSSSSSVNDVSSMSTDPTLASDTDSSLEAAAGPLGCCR

[20] = AUC in Balb/C mouse blood at 5 mg/kg, po after 24 hrs by ESI-LCMS/MS analysis; type: ADME, organism-based; design: time < 24 hr, dose 5 mg/kg, route oral
[21] = molecular target: Serine/threonine-protein kinase PLK1 (Homo sapiens, UniProt P53350); test: Inhibition of human full length recombinant His-tagged PLK1 expressed in baculovirus by Z'-LYTE assay
Sequence of Serine/threonine-protein kinase PLK1 (P53350 whole entry): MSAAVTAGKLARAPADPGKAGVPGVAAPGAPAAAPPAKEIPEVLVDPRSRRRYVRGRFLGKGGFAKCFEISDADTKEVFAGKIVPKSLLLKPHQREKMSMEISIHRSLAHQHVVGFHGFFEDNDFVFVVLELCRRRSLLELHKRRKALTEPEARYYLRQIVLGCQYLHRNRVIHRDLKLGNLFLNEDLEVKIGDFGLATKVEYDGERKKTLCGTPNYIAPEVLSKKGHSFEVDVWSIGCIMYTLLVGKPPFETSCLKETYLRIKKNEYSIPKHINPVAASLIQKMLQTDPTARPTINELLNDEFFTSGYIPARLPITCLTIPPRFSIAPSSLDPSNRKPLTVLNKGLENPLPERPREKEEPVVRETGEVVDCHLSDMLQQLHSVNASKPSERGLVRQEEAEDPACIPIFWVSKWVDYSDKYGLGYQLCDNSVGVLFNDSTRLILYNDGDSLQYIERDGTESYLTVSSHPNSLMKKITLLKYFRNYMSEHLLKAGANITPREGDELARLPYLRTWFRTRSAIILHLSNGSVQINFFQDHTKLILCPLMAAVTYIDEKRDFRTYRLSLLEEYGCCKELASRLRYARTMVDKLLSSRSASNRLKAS

[22] = Volume of distribution at steady state in Balb/C mouse at 5 mg/kg, iv or po after 24 hrs by ESI-LCMS/MS analysis; type: ADME, organism-based; details: in vivo, read-out: Vdss
[23] = molecular target: T3, Cytochrome P450 3A4; test: Inhibition of CYP3A4 (unknown origin) using testosterone as substrate; type: ADME
[24] = molecular target: Cytochrome P450 2C19 (Homo sapiens, UniProt P33261); test: Inhibition of CYP2C19 (unknown origin); type: ADME; details: human
Sequence of Cytochrome P450 2C19 (P33261 whole entry): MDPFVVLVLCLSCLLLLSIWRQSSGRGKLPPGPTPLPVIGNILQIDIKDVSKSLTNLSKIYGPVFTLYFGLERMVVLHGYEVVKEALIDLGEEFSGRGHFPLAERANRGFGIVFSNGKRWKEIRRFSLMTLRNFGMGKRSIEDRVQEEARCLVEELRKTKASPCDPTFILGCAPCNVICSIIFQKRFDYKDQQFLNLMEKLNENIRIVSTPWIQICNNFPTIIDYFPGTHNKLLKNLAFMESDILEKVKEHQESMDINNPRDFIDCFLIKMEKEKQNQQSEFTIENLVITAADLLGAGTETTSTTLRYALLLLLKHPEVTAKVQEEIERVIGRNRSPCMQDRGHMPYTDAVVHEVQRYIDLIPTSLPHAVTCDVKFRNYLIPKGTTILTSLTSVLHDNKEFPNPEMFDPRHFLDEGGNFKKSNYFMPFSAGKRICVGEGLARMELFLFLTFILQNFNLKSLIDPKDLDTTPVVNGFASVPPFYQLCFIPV

[25] = Antiproliferative activity against human SW620 cells assessed as cell viability after 72 hrs by MTT assay; type: functional; details: SW-620, 72 h
[26] = Oral bioavailability in Sprague-Dawley rat at 5 mg/kg after 24 hrs by ESI-LCMS/MS analysis; type: ADME, organism-based; details: in vivo
[27] = Volume of distribution at steady state in Sprague-Dawley rat at 5 mg/kg, iv or po after 24 hrs by ESI-LCMS/MS analysis; type: ADME, organism-based; details: in vivo, read-out: Vdss
[28] = Antiproliferative activity against human RMG-1 cells assessed as cell viability after 72 hrs by MTT assay; type: functional; details: RMG-I
[29] = molecular target: T4, Cytochrome P450 2B6 (Homo sapiens, UniProt P20813); test: Inhibition of CYP2B6 (unknown origin); type: ADME
T4 sequence (P20813 whole entry): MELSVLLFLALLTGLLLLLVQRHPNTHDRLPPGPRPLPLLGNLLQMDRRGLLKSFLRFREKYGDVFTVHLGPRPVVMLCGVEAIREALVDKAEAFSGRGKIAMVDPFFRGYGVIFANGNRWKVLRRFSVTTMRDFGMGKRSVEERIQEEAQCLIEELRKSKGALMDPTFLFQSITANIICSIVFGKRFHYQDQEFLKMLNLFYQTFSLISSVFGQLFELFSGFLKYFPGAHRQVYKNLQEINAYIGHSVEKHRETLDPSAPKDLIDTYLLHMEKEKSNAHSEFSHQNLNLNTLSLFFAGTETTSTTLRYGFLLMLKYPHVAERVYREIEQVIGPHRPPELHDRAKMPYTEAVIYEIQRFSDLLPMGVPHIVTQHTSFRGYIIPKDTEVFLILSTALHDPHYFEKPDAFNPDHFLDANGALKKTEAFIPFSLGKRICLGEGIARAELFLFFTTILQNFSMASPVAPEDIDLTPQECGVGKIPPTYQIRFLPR

[30] = Clearance in Balb/C mouse blood at 5 mg/kg, iv or po after 24 hrs by ESI-LCMS/MS analysis; type: ADME, organism-based
[31] = molecular target: T3, Cytochrome P450 3A4; test: Inhibition of CYP3A4T (unknown origin); type: ADME
[32] = Drug metabolism in Sprague-Dawley rat liver microsomes at 10 uM after 30 mins by LCMS analysis; type: ADME; details: read-out: Drug metabolism
[33] = Antiproliferative activity against human MIAPaCa2 cells assessed as cell viability after 72 hrs by MTT assay; type: functional; details: MIA PaCa-2, 72 h
[34] = Plasma protein binding in Sprague-Dawley rat at 5 mg/kg, iv or po after 24 hrs by ESI-LCMS/MS analysis; type: ADME, organism-based; details: read-out: PPB (converted)
[35] = Plasma protein binding in Balb/C mouse at 5 mg/kg, iv or po after 24 hrs by ESI-LCMS/MS analysis; type: ADME, organism-based; details: read-out: PPB (converted)
[36] = molecular target: Mitogen-activated protein kinase 9 (Homo sapiens, UniProt P45984); test: Inhibition of human full length recombinant His-tagged JNK2 expressed in baculovirus by lanthascreen assay
Sequence of Mitogen-activated protein kinase 9 (P45984 whole entry): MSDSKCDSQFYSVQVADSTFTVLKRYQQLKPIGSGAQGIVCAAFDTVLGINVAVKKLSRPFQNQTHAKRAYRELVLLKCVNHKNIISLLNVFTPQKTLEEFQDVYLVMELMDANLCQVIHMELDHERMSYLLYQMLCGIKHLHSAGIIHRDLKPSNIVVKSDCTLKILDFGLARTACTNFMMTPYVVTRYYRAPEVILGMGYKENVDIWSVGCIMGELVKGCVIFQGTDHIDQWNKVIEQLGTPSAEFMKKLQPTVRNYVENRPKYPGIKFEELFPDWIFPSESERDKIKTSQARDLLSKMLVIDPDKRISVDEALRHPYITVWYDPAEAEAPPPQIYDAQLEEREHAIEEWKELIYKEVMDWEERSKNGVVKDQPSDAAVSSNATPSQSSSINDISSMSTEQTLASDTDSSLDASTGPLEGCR

[37] = Oral bioavailability in Balb/C mouse at 5 mg/kg after 24 hrs by ESI-LCMS/MS analysis; type: ADME, organism-based; details: in vivo
[38] = molecular target: T5, Cytochrome P450 1A2 (Homo sapiens, UniProt P05177); test: Inhibition of CYP1A2 (unknown origin); type: ADME; details: human
T5 sequence (P05177 whole entry): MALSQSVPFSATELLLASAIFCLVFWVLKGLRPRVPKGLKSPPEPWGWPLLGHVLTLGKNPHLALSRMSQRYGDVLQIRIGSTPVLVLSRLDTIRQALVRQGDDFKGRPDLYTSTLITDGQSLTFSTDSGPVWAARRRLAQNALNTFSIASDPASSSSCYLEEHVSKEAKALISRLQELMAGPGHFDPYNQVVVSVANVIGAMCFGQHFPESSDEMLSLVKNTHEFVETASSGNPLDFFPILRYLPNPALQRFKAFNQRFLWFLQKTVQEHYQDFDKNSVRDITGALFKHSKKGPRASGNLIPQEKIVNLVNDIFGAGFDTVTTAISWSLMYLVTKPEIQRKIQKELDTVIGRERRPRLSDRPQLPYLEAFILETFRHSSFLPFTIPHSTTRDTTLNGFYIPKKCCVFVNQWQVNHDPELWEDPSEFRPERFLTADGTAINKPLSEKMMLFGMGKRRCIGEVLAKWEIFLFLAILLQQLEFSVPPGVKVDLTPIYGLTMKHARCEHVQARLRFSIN

Compound: COCCOc1cc(-c2cnn(C)c2)ccc1Nc1ncc2ccnc(-c3cnn(C)c3)c2n1
- metabolised at 0.5 h, 10 µM [1]: 59%

Compound: COc1cc(-c2cnn(C)c2)ccc1Nc1ncc2ccnc(NCC(C)C)c2n1
- GI50 [2]: 1100 nM
- metabolised at 0.5 h, 10 µM [1]: 66%

Compound: COc1ccc(Nc2cc3c(-c4ccco4)cccc3cn2)cc1
- IC50 [3]: 31100 nM

Compound: COc1cc(-c2cnn(C)c2)ccc1Nc1ncc2ccnc(-c3cnn(C)c3)c2n1
- metabolised at 0.5 h, 10 µM [1]: 73%

Compound: COc1cc(-c2cnn(C)c2)ccc1Nc1ncc2ccnc(N[C@@H](C)C(C)(C)C)c2n1
- clearance [4]: 24 mL/min/kg
- inhibition (INH) [5]: Not Active
- inhibition (INH) [6]: Not Active
- inhibition (INH) [7]: Not Active
- AUC at 24 h [8]: 9.3 µM·h
- GI50 [9]: 68 nM
- half-life [10]: 2.5 h
- GI50 [11]: 230 nM
- Cmax [12]: 770 nM
- inhibition (INH) [13]: Not Active
- GI50 [2]: 160 nM
- Cmax [14]: 560 nM
- half-life [15]: 8.2 h
- GI50 [16]: 3950 nM
- metabolised at 0.5 h, 10 µM [17]: 70%
- inhibition (INH) [18]: Not Active
- IC50 [19]: 110 nM
- AUC at 24 h [20]: 4.8 µM·h
- IC50 [21]: > 100000 nM
- Vd [22]: 14.7 L/kg
- inhibition (INH) [23]: Not Active
- inhibition (INH) [24]: Not Active
- GI50 [25]: 65 nM
- bioavailability [26]: 100%
- Vd [27]: 4.64 L/kg
- GI50 [28]: 110 nM
- inhibition (INH) [29]: Not Active
- clearance [30]: 28 mL/min/kg
- inhibition (INH) [31]: Not Active
- metabolised at 0.5 h, 10 µM [32]: 24%
- GI50 [33]: 250 nM
- metabolised at 0.5 h, 10 µM [1]: 27%
- fraction unbound at 24 h [34]: 0.0003
- fraction unbound at 24 h [35]: 0.0002
- IC50 [36]: 220 nM
- bioavailability [37]: 68%
- inhibition (INH) [38]: Not Active

Compound: COc1cc(-c2cnn(C)c2)ccc1Nc1ncc2ccnc(NCC3CC3)c2n1
- GI50 [2]: 320 nM
- metabolised at 0.5 h, 10 µM [1]: 33%

Compound: COc1cc(-c2cnn(C)c2)ccc1Nc1ncc2ccnc(SC3CCCCC3)c2n1
- IC50 [3]: > 10000 nM

Compound: COc1ccc(Nc2cc3c(-c4cnn(C)c4)cccc3cn2)cc1
- IC50 [3]: 1220 nM

Compound: CC(C)Oc1cc(-c2cnn(C)c2)ccc1Nc1ncc2ccnc(-c3cnn(C)c3)c2n1
- IC50 [3]: > 10000 nM
- metabolised at 0.5 h, 10 µM [1]: 45%

— ChEMBL document CHEMBL3808337, “Rapid Discovery of Pyrido[3,4-d]pyrimidine Inhibitors of Monopolar Spindle Kinase 1 (MPS1) Using a Structure-Based Hybridization Approach” (J Med Chem, 2016)
